Results published in patent US20250114312A1, “TREATMENT OF COPPER DISORDERS” (PhilERA New Zealand Ltd., priority 2021, published 2025).

Experiments:
[1] = human, in vivo
[2] = in-life phase, albino and pigmented rats, 10 mg/kg oral
Caco-2 barrier model = assay: Permeability in Caco-2 barrier model; details: for Papp, B-A direction: compound alone
Procedure: (§1) Digoxin was used as marker to check for Pgp activity in the cultures. […] Samples were recovered from receptor compartments after 0, 15, 30, 45, 60, and 120 minutes, and further analyzed by liquid scintillation counting. Samples were also recovered a time 0 and 120 minutes from the donor compartments for mass balance evaluation. Each condition was performed in 3 replicated transwell filters in the presence of the Caco-2 barrier.

urinary copper excretion = details: in vivo
Pgp = Pgp (Homo sapiens, UniProt P08183); details: Caco-2
[3] = Permeability in Caco-2 barrier model; details: human, Caco-2, pH 7.4
Procedure: as §1

Pgp, sequence (P08183 whole entry): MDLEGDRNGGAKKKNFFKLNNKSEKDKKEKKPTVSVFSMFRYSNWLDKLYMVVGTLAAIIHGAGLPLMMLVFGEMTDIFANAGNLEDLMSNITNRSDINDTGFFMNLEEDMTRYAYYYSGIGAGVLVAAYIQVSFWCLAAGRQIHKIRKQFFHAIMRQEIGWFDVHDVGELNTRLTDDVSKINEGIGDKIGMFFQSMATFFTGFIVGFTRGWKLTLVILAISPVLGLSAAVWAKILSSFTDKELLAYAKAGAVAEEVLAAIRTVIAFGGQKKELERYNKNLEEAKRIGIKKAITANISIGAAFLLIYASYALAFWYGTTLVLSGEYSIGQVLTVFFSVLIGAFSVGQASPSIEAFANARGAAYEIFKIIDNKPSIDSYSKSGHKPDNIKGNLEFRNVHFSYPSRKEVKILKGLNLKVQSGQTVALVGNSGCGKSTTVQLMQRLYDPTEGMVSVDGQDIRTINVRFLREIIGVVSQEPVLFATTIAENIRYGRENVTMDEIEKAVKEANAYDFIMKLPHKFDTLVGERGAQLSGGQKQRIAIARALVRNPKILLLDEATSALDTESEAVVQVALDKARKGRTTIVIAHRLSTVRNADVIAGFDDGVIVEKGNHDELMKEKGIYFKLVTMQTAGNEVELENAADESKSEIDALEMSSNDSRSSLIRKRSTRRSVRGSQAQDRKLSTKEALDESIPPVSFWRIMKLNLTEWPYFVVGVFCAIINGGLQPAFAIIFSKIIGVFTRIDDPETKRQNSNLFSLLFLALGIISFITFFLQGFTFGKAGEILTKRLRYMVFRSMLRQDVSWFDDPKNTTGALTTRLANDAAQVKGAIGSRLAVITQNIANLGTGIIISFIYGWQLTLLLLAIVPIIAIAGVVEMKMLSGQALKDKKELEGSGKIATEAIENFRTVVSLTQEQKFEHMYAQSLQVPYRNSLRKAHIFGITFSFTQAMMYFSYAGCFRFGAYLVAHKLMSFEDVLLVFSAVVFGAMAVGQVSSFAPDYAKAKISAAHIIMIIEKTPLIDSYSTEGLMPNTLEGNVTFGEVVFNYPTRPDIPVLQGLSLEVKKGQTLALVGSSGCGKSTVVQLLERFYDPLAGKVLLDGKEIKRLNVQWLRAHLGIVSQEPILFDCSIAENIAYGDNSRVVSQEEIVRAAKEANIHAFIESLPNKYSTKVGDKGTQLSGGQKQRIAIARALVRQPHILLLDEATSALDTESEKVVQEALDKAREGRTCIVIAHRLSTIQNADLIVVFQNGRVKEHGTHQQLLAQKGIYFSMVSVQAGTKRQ

CC(=O)NCCNCCNCCNC(C)=O [DAT, N1,N10-diacetyltriethylenetetramine]
θ-VP,D/F/frM/frD Apparent volume for DAT (human, in vivo): 197 L | Median Tmax of DAT [1]: 5.0 to 6.0 h

NCCNCCNCCN [TETA, Triethylenetetramine, reference compound]
Increase of VT,T/F for every 100 mg difference from the 750 mg dose (human, in vivo): 6.37% | Inter-occasion variability of F (human, in vivo): 43.7 (17.3) [5.5] % | Inter-occasion variability of ka (human, in vivo): 69.4 (57.6) [16.3] % | Slope (SL) of copper excretion versus TETA concentration (in vivo): 41.8 (mg/L)^−1 | θ-SL · ER0 Slope between TETA and Cu excretion rate (population mean): 24.3 (mg/L)^−1 · (μg/h)

NCCNCCNCCN.O=C(O)CCC(=O)O.O=C(O)CCC(=O)O
Animal observations attributable to administration [2]: No animal observations

Lucifer yellow
Papp of barrier quality markers (Caco-2 barrier model; Caco-2): lower than 1×10^−6 cm/s

NCCNCCNCCN.O=C(O)CCC(=O)O.O=C(O)CCC(=O)O [PX811019, triethylenetetramine disuccinate]
Papp, B-A direction (Caco-2 barrier model; disuccinate): No permeability was observed | Predicted absorption in humans (Caco-2 barrier model; estimated from in vitro Papp value): approximately 70% | Difference in urinary excretion of copper due to formulation (urinary copper excretion): no clear difference | Level of cupriuresis versus dose (urinary copper excretion; po): approximately the same at 435 and 1305 mg PX811019 and increased at the highest dose of 2175 mg | DAT t½ Predicted (human, in vivo, po): 0.390 h | MAT t½ ([1]; po): 15.8239 h | Pgp substrate (Pgp): would not be a Pgp substrate

C[C@H]1O[C@@H](O[C@H]2[C@@H](O)C[C@H](O[C@H]3[C@@H](O)C[C@H](O[C@H]4CC[C@@]5(C)[C@H](CC[C@@H]6[C@@H]5C[C@@H](O)[C@]5(C)[C@@H](C7=CC(=O)OC7)CC[C@]65O)C4)O[C@@H]3C)O[C@@H]2C)C[C@H](O)[C@@H]1O [Digoxin]
Papp A→B at 1 h, 0.02 mM [3]: 0.75 ×10⁻⁶ cm/s | Asymmetry Index (Caco-2 barrier model; B-A/A-B): 8.06 | Papp, B-A direction (Caco-2 barrier model): 6.08 ×10⁻⁶ cm/s

CC(=O)NCCNCCNCCN [MAT, N1-acetyltriethylenetetramine]
θ-MTT Mean transit time for MAT formation (human, in vivo): 0.381 h | θ-VP,M/F/frM Apparent volume for MAT (human, in vivo): 426 L
